EC50 data for 26 compounds are collected here from patent US8415351B2 (priority 2007, dated 2013).

The subject of test [1] is genotype 1a-H77 subgenomic replicon cell line. As to the kind of experiment: microbe, parasite or virus in culture. Type of test: cell-based, HCV. As to conditions: Hepatitis C virus, read-out: EC50 1a.
Test [2] relates to genotype 1b-Con1 subgenomic replicon cell line. As to the kind of experiment: microbe, parasite or virus in culture. Type of test: cell-based, HCV. As to conditions: Hepatitis C virus, read-out: EC50 1b.

The term EC50 denotes the concentration giving half of the maximal effect.

Take `COc1c(-c2ccccc2)cc(-n2ccc(=O)[nH]c2=O)cc1-c1ccc2cc(NS(C)(=O)=O)ccc2c1` [IB-L0-2.71, N-(6-(5-(2,4-dioxo-3,4-dihydropyrimidin-1(2H)-yl)-2-methoxy-biphenyl-3-yl)naphthalen-2-yl)methanesulfonamide]: the values for the EC50 in test [1] and in test [2] were 100 to 1000 nM and 10 to 100 nM, respectively.
For `COC(=O)c1cc(-n2ccc(=O)[nH]c2=O)cc(-c2ccc3cc(NS(C)(=O)=O)ccc3c2)c1OC` [IB-L0-2.72, methyl 5-(2,4-dioxo-3,4-dihydropyrimidin-1(2H)-yl)-2-methoxy-3-(6-(methylsulfonamido)naphthalen-2-yl)benzoate] the same measures were more than 1000 nM and 100 to 1000 nM.
As for `COc1c(-c2ccc3cc(NS(C)(=O)=O)ccc3c2)cc(-n2ccc(=O)[nH]c2=O)cc1-c1ccc(C)s1` [IB-L0-2.73, N-(6-(5-(2,4-dioxo-3,4-dihydropyrimidin-1(2H)-yl)-2-methoxy-3-(5-methylthiophen-2-yl)phenyl)naphthalen-2-yl)methanesulfonamide], the concentration for a half-maximal effect (EC50) in test [1] and in test [2] was 100 to 1000 nM in each case.
Turning to `COc1c(-c2cccc(Cl)c2)cc(-n2ccc(=O)[nH]c2=O)cc1-c1ccc2cc(NS(C)(=O)=O)ccc2c1` [IB-L0-2.74, N-(6-(3′-chloro-5-(2,4-dioxo-3,4-dihydropyrimidin-1(2H)-yl)-2-methoxybiphenyl-3-yl)naphthalen-2-yl)methanesulfonamide], the results for the concentration giving a half-maximal response (EC50) in test [1] and in test [2] were more than 1000 nM and 100 to 1000 nM, respectively.
In the case of `COc1c(NS(C)(=O)=O)cc(-n2ccc(=O)[nH]c2=O)cc1-c1ccc2cc(NS(C)(=O)=O)ccc2c1` [IB-L0-2.75, N-(5-(2,4-dioxo-3,4-dihydropyrimidin-1(2H)-yl)-2-methoxy-3-(6-(methylsulfonamido)naphthalen-2-yl)phenyl)methanesulfonamide], the EC50 in test [1] and in test [2] was more than 1000 nM throughout.
On to `COc1c(N2Cc3ccc(NS(C)(=O)=O)cc3C2)cc(-n2ccc(=O)[nH]c2=O)cc1C(C)(C)C` [IB-L0-2.79, N-(2-(3-tert-butyl-5-(2,4-dioxo-3,4-dihydropyrimidin-1(2H)-yl)-2-methoxyphenyl)isoindolin-5-yl)methanesulfonamide], for which the concentration for a half-maximal effect (EC50) in test [1] and in test [2] was 100 to 1000 nM in each case.
In the case of `COc1c(/C=C/c2ccc(NS(C)(=O)=O)cc2)cc(-n2ccc(=O)[nH]c2=O)cc1C(C)(C)C` [IB-L1-1.1, (E)-N-(4-(3-tert-butyl-5-(2,4-dioxo-3,4-dihydropyrimidin-1(2H)-yl)-2-methoxystyryl)phenyl)methanesulfonamide], the concentration for a half-maximal effect (EC50) in test [1] and in test [2] was less than 10 nM each time.
As to `COc1c(/C=C/c2ccc(NS(C)(=O)=O)cc2C(=O)O)cc(-n2ccc(=O)[nH]c2=O)cc1C(C)(C)C` [IB-L1-1.4, (E)-2-(3-tert-butyl-5-(2,4-dioxo-3,4-dihydropyrimidin-1(2H)-yl)-2-methoxystyryl)-5-(methylsulfonamido)benzoic acid], the EC50 in test [1] is 10 to 100 nM; in test [2] it was less than 10 nM.
For `COc1c(/C=C/c2ccc(NS(C)(=O)=O)c(F)c2)cc(-n2ccc(=O)[nH]c2=O)cc1C(C)(C)C` [IB-L1-1.5, (E)-N-(4-(3-tert-butyl-5-(2,4-dioxo-3,4-dihydropyrimidin-1(2H)-yl)-2-methoxystyryl)-2-fluorophenyl)methanesulfonamide] the same measures were 10 to 100 nM and less than 10 nM.
For `COc1c(/C=C/c2ccc(NS(C)(=O)=O)cc2C=O)cc(-n2ccc(=O)[nH]c2=O)cc1C(C)(C)C` [IB-L1-1.6, N-(4-{(E)-2-[3-tert-Butyl-5-(2,4-dioxo-3,4-dihydro-2H-pyrimidin-1-yl)-2-methoxy-phenyl]-vinyl}-3-formyl-phenyl)-methanesulfonamide] the same measures were less than 10 nM and less than 10 nM.
For `COC(=O)c1cc(NS(C)(=O)=O)ccc1/C=C/c1cc(-n2ccc(=O)[nH]c2=O)cc(C(C)(C)C)c1OC` [IB-L1-1.7, (K)-methyl 2-(3-tert-butyl-5-(2,4-dioxo-3,4-dihydropyrimidin-1(2H)-yl)-2-methoxystyryl)-5-(methylsulfonamido)benzoate] the same measures were less than 10 nM and less than 10 nM.
For `COc1c(/C=C/c2ccc(NS(C)(=O)=O)cc2C=NO)cc(-n2ccc(=O)[nH]c2=O)cc1C(C)(C)C` [IB-L1-1.8, N-(4-{(E)-2-[3-tert-Butyl-5-(2,4-dioxo-3,4-dihydro-2H-pyrimidin-1-yl)-2-methoxy-phenyl]-vinyl}-3-(hydroxyimino-methyl)-phenyl)-methanesulfonamide], the figures for the concentration giving a half-maximal response (EC50) in test [1] and in test [2] were 10 to 100 nM and less than 10 nM, respectively.
For `COCCNC(=O)c1cc(NS(C)(=O)=O)ccc1/C=C/c1cc(-n2ccc(=O)[nH]c2=O)cc(C(C)(C)C)c1OC` [IB-L1-1.9, 2-{(E)-2-[3-tert-Butyl-5-(2,4-dioxo-3,4-dihydro-2H-pyrimidin-1-yl)-2-methoxy-phenyl]-vinyl}-5-methanesulfonylamino-N-(2-methoxy-ethyl)-benzamide] the same measures were 10 to 100 nM and less than 10 nM.
For `COc1c(/C=C/c2ccc(NS(C)(=O)=O)cc2CO)cc(-n2ccc(=O)[nH]c2=O)cc1C(C)(C)C` [IB-L1-1.10, (E)-N-(4-(3-tert-butyl-5-(2,4-dioxo-3,4-dihydropyrimidin-1(2H)-yl)-2-methoxystyryl)-3-(hydroxymethyl)phenyl)methanesulfonamide] the same measures were less than 10 nM and less than 10 nM.
For `CCOC(=O)c1cc(NS(C)(=O)=O)ccc1/C=C/c1cc(-n2ccc(=O)[nH]c2=O)cc(C(C)(C)C)c1OC` [IB-L1-1.11, 2-{(E)-2-[3-tert-Butyl-5-(2,4-dioxo-3,4-dihydro-2H-pyrimidin-1-yl)-2-methoxy-phenyl]-vinyl}-5-methanesulfonylamino-benzoic acid ethyl ester], the half-maximal effective concentration (EC50) in test [1] was 10 to 100 nM; in test [2] it was less than 10 nM.
For `CC(C)(C)c1cc(-n2ccc(=O)[nH]c2=O)cc(/C=C/c2ccc(NS(C)(=O)=O)cc2)c1Cl` [IB-L1-1.12, N-(4-{(E)-2-[3-tert-Butyl-2-chloro-5-(2,4-dioxo-3,4-dihydro-2H-pyrimidin-1-yl)-phenyl]-vinyl}-phenyl)-methanesulfonamide] the same measures were 10 to 100 nM and 10 to 100 nM.
For `COCc1cc(NS(C)(=O)=O)ccc1/C=C/c1cc(-n2ccc(=O)[nH]c2=O)cc(C(C)(C)C)c1OC` [IB-L1-1.13, (E)-N-(4-(3-tert-butyl-5-(2,4-dioxo-3,4-dihydropyrimidin-1(2H)-yl)-2-methoxystyryl)-3-(methoxymethyl)phenyl)methanesulfonamide] the same measures were 10 to 100 nM and less than 10 nM.
For `COc1c(/C=C/c2ccc(NS(C)(=O)=O)cc2C(=O)N(C)C)cc(-n2ccc(=O)[nH]c2=O)cc1C(C)(C)C` [IB-L1-1.14, 2-{(E)-2-[3-tert-Butyl-5-(2,4-dioxo-3,4-dihydro-2H-pyrimidin-1-yl)-2-methoxy-phenyl]-vinyl}-5-methanesulfonylamino-N,N-dimethyl-benzamide] the same measures were 10 to 100 nM and less than 10 nM.
Turning to `COc1c(/C=C/c2cc(F)c(NS(C)(=O)=O)cc2C)cc(-n2ccc(=O)[nH]c2=O)cc1C(C)(C)C` [IB-L1-1.15, (E)-N-(4-(3-tert-butyl-5-(2,4-dioxo-3,4-dihydropyrimidin-1 (2H)-yl)-2-methoxystyryl)-2-fluoro-5-methylphenyl)methanesulfonamide], the concentration for a half-maximal effect (EC50) in test [1] and in test [2] was less than 10 nM throughout.
On to `COc1c(/C=C/c2ccc(NS(C)(=O)=O)cc2-c2ncc[nH]2)cc(-n2ccc(=O)[nH]c2=O)cc1C(C)(C)C` [IB-L1-1.16, (E)-N-(4-(3-tert-butyl-5-(2,4-dioxo-3,4-dihydropyrimidin-1(2H)-yl)-2-methoxystyryl)-3-(1H-imidazol-2-yl)phenyl)methanesulfonamide], for which the EC50 in test [1] was in the range of 100 to 1000 nM; in test [2] it was 10 to 100 nM.
Regarding `CNC(=O)c1cc(NS(C)(=O)=O)ccc1/C=C/c1cc(-n2ccc(=O)[nH]c2=O)cc(C(C)(C)C)c1OC` [IB-L1-1.17, 2-{(E)-2-[3-tert-butyl-5-(2,4-dioxo-3,4-dihydro-2H-pyrimidin-1-yl)-2-methoxy-phenyl]-vinyl}-5-methanesulfonylamino-N-methyl-benzamide], the EC50 in test [1] is 10 to 100 nM; in test [2] it was less than 10 nM.
For `COc1c(/C=C/c2ccc(NS(C)(=O)=O)cc2C(=O)N(C)C2CCS(=O)(=O)C2)cc(-n2ccc(=O)[nH]c2=O)cc1C(C)(C)C` (stereo not shown) [IB-L1-1.18, 2-{(E)-2-[3-tert-butyl-5-(2,4-dioxo-3,4-dihydro-2H-pyrimidin-1-yl)-2-methoxy-phenyl]-vinyl}-N-(1,1-dioxo-tetrahydro-1lambda*6*-thiophen-3-yl)-5-methanesulfonylamino-N-methyl-benzamide] the same measures were 10 to 100 nM and 10 to 100 nM.
For `CO/N=C/c1cc(NS(C)(=O)=O)ccc1/C=C/c1cc(-n2ccc(=O)[nH]c2=O)cc(C(C)(C)C)c1OC` [IB-L1-1.19] the same measures were 10 to 100 nM and less than 10 nM.
`COc1c(/C=C/c2ccc(NS(C)(=O)=O)cc2)cc(-n2cc(Cl)c(=O)[nH]c2=O)cc1C(C)(C)C` [IB-L1-1.20, N-(4-{(E)-2-[3-tert-butyl-5-(5-chloro-2,4-dioxo-3,4-dihydro-2H-pyrimidin-1-yl)-2-methoxy-phenyl]-vinyl}-phenyl)-methanesulfonamide]: the half-maximal effective concentration (EC50) in test [1] was 10 to 100 nM; in test [2], less than 10 nM.
For `COc1c(/C=C/c2ccc(NS(C)(=O)=O)cc2C(N)=O)cc(-n2ccc(=O)[nH]c2=O)cc1C(C)(C)C` [IB-L1-1.21, 2-{(E)-2-[3-tert-butyl-5-(2,4-dioxo-3,4-dihydro-2H-pyrimidin-1-yl)-2-methoxy-phenyl]-vinyl}-5-methanesulfonylamino-benzamide] the same measures were 10 to 100 nM and less than 10 nM.
For `COc1c(/C=C/c2ccc(NS(C)(=O)=O)cc2C(=O)N2CCC2)cc(-n2ccc(=O)[nH]c2=O)cc1C(C)(C)C` [IB-L1-1.22, N-(3-(azetidine-1-carbonyl)-4-{(E)-2-[3-tert-butyl-5-(2,4-dioxo-3,4-dihydro-2H-pyrimidin-1-yl)-2-methoxy-phenyl]-vinyl}-phenyl)-methanesulfonamide] the same measures were 10 to 100 nM and less than 10 nM.
